PubChem BioAssay (NCI)
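Protocol summary: plate cells (96-well), add compound at 5 concentrations, incubate 48 h, interpolate endpoints linearly. GI50: concentration for 50% inhibition of growth. At the TGI there is no net growth.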

tested on: HCT-15 colon; assay: NCI-60 cell line screen, 48 h

`CN(C)c1nc(=NCc2ccccn2)ss1` showed a TGI greater than 10 µM.

tested on: A498 renal; assay: NCI-60 cell line screen, 48 h

`CC1=C(C(=O)NNC(=O)CC#N)CC(C(=O)NNC(=O)CC#N)=C(C)N1` and `COC(=O)c1cc(C(=O)OC)cc(-c2ccc3c(c2)-c2nc4c(c(-c5ccc(OC)cc5)c2CC3)CCc2ccc(-c3cc(C(=O)OC)cc(C(=O)OC)c3)cc2-4)c1` cannot be ordered by TGI: greater than 100 µM for the first, greater than 100 µM for the second.

`CCCCCCNc1nc(NCCCCCC)c2[nH]c(NCCCCCC)nc2n1` and `CN(C)c1nc(=NCc2ccccn2)ss1` cannot be ordered by TGI: 10.5 µM for the first, greater than 10 µM for the second.

Work on `CCCCCCNc1nc(NCCCCCC)c2[nH]c(NCCCCCC)nc2n1` yielded a GI50 of 1200 nM.

tested on: TK-10 renal; assay: NCI-60 cell line screen, 48 h

Compared with `COc1cc(OC)c(C2c3cc4c(cc3OC(N3CCOCC3)C2C)OCO4)c(OC)c1` (stereo not drawn), `COC(=O)c1cc2c3c(cc(NCCN)c2[nH]1)N(C(=O)c1cc2cc(OC)c(OC)c(OC)c2[nH]1)CC3CCl` (stereo not drawn) is lower in TGI: greater than 100 µM for the first, 2.95 µM for the second.

`CCN(CC)CCCNc1ccc([N+](=O)[O-])c2nc3ccc(OC)cc3c(NCCCN(CC)CC)c12` and `CCCCCCNc1nc(NCCCCCC)c2[nH]c(NCCCCCC)nc2n1` cannot be ordered by TGI: greater than 10 µM for the first, 46.6 µM for the second.

`CC1=C(C(=O)NNC(=O)CC#N)CC(C(=O)NNC(=O)CC#N)=C(C)N1` and `COC(=O)c1cc(C(=O)OC)cc(-c2ccc3c(c2)-c2nc4c(c(-c5ccc(OC)cc5)c2CC3)CCc2ccc(-c3cc(C(=O)OC)cc(C(=O)OC)c3)cc2-4)c1` cannot be ordered by TGI: greater than 100 µM for the first, greater than 100 µM for the second.

With `CN(C)c1nc(=NCc2ccccn2)ss1` the TGI was greater than 10 µM.

Compound `CCCCCCNc1nc(NCCCCCC)c2[nH]c(NCCCCCC)nc2n1` has a GI50 of 21.3 µM.

tested on: HCC-2998 colon; assay: NCI-60 cell line screen, 48 h

Compared with `COc1cc(OC)c(C2c3cc4c(cc3OC(N3CCOCC3)C2C)OCO4)c(OC)c1` (stereo not drawn), `COC(=O)c1cc2c3c(cc(NCCN)c2[nH]1)N(C(=O)c1cc2cc(OC)c(OC)c(OC)c2[nH]1)CC3CCl` (stereo not drawn) is lower in TGI: greater than 100 µM for the first, 0.182 µM for the second.

First: CCN(CC)CCCNc1ccc([N+](=O)[O-])c2nc3ccc(OC)cc3c(NCCCN(CC)CC)c12
Second: CCCCCCNc1nc(NCCCCCC)c2[nH]c(NCCCCCC)nc2n1
The TGI of the first is 8.8-fold lower: 3.03 µM for the first, 26.8 µM for the second.

`CC1=C(C(=O)NNC(=O)CC#N)CC(C(=O)NNC(=O)CC#N)=C(C)N1` and `COC(=O)c1cc(C(=O)OC)cc(-c2ccc3c(c2)-c2nc4c(c(-c5ccc(OC)cc5)c2CC3)CCc2ccc(-c3cc(C(=O)OC)cc(C(=O)OC)c3)cc2-4)c1` cannot be ordered by TGI: greater than 100 µM for the first, greater than 100 µM for the second.

`CN(C)c1nc(=NCc2ccccn2)ss1` showed a TGI greater than 10 µM.

`CCCCCCNc1nc(NCCCCCC)c2[nH]c(NCCCCCC)nc2n1` gave a GI50 of 12.5 µM.

tested on: HCT-116 colon; assay: NCI-60 cell line screen, 48 h

Compared with `COc1cc(OC)c(C2c3cc4c(cc3OC(N3CCOCC3)C2C)OCO4)c(OC)c1` (stereo not drawn), `COC(=O)c1cc2c3c(cc(NCCN)c2[nH]1)N(C(=O)c1cc2cc(OC)c(OC)c(OC)c2[nH]1)CC3CCl` (stereo not drawn) is lower in TGI: greater than 100 µM for the first, 0.0256 µM for the second.

`CC1=C(C(=O)NNC(=O)CC#N)CC(C(=O)NNC(=O)CC#N)=C(C)N1` and `COC(=O)c1cc(C(=O)OC)cc(-c2ccc3c(c2)-c2nc4c(c(-c5ccc(OC)cc5)c2CC3)CCc2ccc(-c3cc(C(=O)OC)cc(C(=O)OC)c3)cc2-4)c1` cannot be ordered by TGI: greater than 100 µM for the first, greater than 100 µM for the second.

First: CCCCCCNc1nc(NCCCCCC)c2[nH]c(NCCCCCC)nc2n1
Second: CN(C)c1nc(=NCc2ccccn2)ss1
The TGI of the first is lower: 3.46 µM for the first, greater than 10 µM for the second.

`CCCCCCNc1nc(NCCCCCC)c2[nH]c(NCCCCCC)nc2n1` was tested, and the GI50 was 1340 nM.

tested on: NCI/ADR-RES ovarian; assay: NCI-60 cell line screen, 48 h

`COc1cc(OC)c(C2c3cc4c(cc3OC(N3CCOCC3)C2C)OCO4)c(OC)c1` (stereo not drawn) and `COC(=O)c1cc(C(=O)OC)cc(-c2ccc3c(c2)-c2nc4c(c(-c5ccc(OC)cc5)c2CC3)CCc2ccc(-c3cc(C(=O)OC)cc(C(=O)OC)c3)cc2-4)c1` cannot be ordered by TGI: greater than 100 µM for the first, greater than 100 µM for the second.

`CC1=C(C(=O)NNC(=O)CC#N)CC(C(=O)NNC(=O)CC#N)=C(C)N1` and `CCCCCCNc1nc(NCCCCCC)c2[nH]c(NCCCCCC)nc2n1` cannot be ordered by TGI: greater than 100 µM for the first, greater than 100 µM for the second.

`CN(C)c1nc(=NCc2ccccn2)ss1` gave a TGI greater than 10 µM.

`CCCCCCNc1nc(NCCCCCC)c2[nH]c(NCCCCCC)nc2n1` showed a GI50 of 64.5 µM.

tested on: SF-539 CNS; assay: NCI-60 cell line screen, 48 h

`COc1cc(OC)c(C2c3cc4c(cc3OC(N3CCOCC3)C2C)OCO4)c(OC)c1` (stereo not drawn) and `CN(C)c1nc(=NCc2ccccn2)ss1` cannot be ordered by TGI: greater than 100 µM for the first, greater than 10 µM for the second.

First: CC1=C(C(=O)NNC(=O)CC#N)CC(C(=O)NNC(=O)CC#N)=C(C)N1
Second: CCCCCCNc1nc(NCCCCCC)c2[nH]c(NCCCCCC)nc2n1
The TGI of the first is higher: greater than 100 µM for the first, 21.1 µM for the second.

With `CCCCCCNc1nc(NCCCCCC)c2[nH]c(NCCCCCC)nc2n1` the GI50 was 7.39 µM.

tested on: OVCAR-3 ovarian; assay: NCI-60 cell line screen, 48 h

Going from `COc1cc(OC)c(C2c3cc4c(cc3OC(N3CCOCC3)C2C)OCO4)c(OC)c1` (stereo not drawn) to `COC(=O)c1cc2c3c(cc(NCCN)c2[nH]1)N(C(=O)c1cc2cc(OC)c(OC)c(OC)c2[nH]1)CC3CCl` (stereo not drawn), the TGI falls from greater than 100 µM to 0.569 µM.

`CC1=C(C(=O)NNC(=O)CC#N)CC(C(=O)NNC(=O)CC#N)=C(C)N1` and `COC(=O)c1cc(C(=O)OC)cc(-c2ccc3c(c2)-c2nc4c(c(-c5ccc(OC)cc5)c2CC3)CCc2ccc(-c3cc(C(=O)OC)cc(C(=O)OC)c3)cc2-4)c1` cannot be ordered by TGI: greater than 100 µM for the first, greater than 100 µM for the second.

Going from `CCCCCCNc1nc(NCCCCCC)c2[nH]c(NCCCCCC)nc2n1` to `CN(C)c1nc(=NCc2ccccn2)ss1`, the TGI rises from 9.44 µM to greater than 10 µM.

With `CCCCCCNc1nc(NCCCCCC)c2[nH]c(NCCCCCC)nc2n1` the GI50 was 2100 nM.

tested on: NCI-H23 lung; assay: NCI-60 cell line screen, 48 h

`COc1cc(OC)c(C2c3cc4c(cc3OC(N3CCOCC3)C2C)OCO4)c(OC)c1` (stereo not drawn) was tested, and the TGI was greater than 100 µM.
